Assay results: article PMC10591924 (Journal of medicinal chemistry, 2023)

Legend:
[1] = LC-MS control: inhibitor in size exclusion buffer without enzyme; format: physicochemical; conditions: 100 μM inhibitor in size exclusion buffer only (pH 7.5), overnight
[2] = molecular target: T1, HDAC6 (Homo sapiens, UniProt Q9UBN7); experiment: Binding kinetics via the Progression Method at HDAC6; format: biochemical; conditions: progression curves, substrate at five times KM, 37 °C
T1 sequence (Q9UBN7 1-1215): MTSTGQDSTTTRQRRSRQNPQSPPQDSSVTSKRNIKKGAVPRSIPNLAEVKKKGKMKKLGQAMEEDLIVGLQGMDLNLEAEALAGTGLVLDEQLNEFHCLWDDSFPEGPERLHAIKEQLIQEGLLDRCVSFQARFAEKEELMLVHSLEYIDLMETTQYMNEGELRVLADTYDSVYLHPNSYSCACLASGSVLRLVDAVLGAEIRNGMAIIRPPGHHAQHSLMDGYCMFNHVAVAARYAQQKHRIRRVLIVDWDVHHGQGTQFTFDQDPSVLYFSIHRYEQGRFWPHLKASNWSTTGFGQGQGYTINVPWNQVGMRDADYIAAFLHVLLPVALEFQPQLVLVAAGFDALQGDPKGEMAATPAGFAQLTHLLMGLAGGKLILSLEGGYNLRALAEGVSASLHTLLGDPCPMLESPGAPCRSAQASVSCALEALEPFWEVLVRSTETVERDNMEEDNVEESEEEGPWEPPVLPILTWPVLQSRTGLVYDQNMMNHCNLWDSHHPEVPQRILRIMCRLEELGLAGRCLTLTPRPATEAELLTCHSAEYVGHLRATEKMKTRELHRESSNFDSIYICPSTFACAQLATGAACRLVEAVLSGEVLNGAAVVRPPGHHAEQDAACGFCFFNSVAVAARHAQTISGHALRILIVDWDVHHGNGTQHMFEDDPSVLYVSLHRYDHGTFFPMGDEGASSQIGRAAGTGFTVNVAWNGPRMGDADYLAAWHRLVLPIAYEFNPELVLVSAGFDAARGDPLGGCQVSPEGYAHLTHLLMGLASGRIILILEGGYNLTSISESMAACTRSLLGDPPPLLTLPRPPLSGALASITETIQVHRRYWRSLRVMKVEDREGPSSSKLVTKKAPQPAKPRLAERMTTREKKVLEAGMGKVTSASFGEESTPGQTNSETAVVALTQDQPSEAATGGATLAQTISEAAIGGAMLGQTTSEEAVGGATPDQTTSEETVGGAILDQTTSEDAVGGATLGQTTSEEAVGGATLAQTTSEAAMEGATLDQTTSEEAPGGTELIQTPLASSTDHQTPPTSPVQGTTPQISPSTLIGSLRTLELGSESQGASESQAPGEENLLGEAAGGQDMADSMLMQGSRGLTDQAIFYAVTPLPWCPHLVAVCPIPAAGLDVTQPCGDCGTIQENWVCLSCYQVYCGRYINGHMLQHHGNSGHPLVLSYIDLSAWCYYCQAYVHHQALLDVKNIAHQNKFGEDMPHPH

[3] = molecular target: HDAC1 (Homo sapiens, UniProt Q13547); experiment: Preincubation HDAC inhibition assay, HDAC1; format: biochemical; conditions: preincubation 1 h at 25 °C
[4] = molecular target: T1, HDAC6; experiment: IC50-shift experiments at HDAC6; format: biochemical; conditions: preincubation 5, 60 and 120 min
[5] = molecular target: HDAC4 (Homo sapiens, UniProt P56524); experiment: Preincubation HDAC inhibition assay, HDAC4; format: biochemical; conditions: preincubation 1 h at 25 °C
[6] = molecular target: HDAC2 (Homo sapiens, UniProt Q92769); experiment: Preincubation HDAC inhibition assay, HDAC2; format: biochemical; conditions: preincubation 1 h at 25 °C
[7] = molecular target: T1, HDAC6; experiment: Preincubation HDAC inhibition assay, HDAC6; format: biochemical; conditions: preincubation 1 h at 25 °C

HDAC1, sequence (Q13547 whole entry): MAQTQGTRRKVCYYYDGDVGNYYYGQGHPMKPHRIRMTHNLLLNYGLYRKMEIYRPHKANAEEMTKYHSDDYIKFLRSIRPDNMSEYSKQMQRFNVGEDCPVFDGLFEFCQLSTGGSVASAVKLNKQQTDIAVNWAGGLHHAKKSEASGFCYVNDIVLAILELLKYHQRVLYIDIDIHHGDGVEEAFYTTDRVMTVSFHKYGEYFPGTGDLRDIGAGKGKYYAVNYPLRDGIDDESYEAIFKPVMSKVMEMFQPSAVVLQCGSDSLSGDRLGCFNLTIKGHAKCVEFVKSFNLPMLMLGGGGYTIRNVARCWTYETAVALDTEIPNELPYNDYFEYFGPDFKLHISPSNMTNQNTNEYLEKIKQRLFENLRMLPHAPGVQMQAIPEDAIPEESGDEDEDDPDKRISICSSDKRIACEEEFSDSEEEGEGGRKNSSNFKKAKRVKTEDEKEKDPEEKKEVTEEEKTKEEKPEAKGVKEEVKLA
HDAC2, sequence (Q92769 whole entry): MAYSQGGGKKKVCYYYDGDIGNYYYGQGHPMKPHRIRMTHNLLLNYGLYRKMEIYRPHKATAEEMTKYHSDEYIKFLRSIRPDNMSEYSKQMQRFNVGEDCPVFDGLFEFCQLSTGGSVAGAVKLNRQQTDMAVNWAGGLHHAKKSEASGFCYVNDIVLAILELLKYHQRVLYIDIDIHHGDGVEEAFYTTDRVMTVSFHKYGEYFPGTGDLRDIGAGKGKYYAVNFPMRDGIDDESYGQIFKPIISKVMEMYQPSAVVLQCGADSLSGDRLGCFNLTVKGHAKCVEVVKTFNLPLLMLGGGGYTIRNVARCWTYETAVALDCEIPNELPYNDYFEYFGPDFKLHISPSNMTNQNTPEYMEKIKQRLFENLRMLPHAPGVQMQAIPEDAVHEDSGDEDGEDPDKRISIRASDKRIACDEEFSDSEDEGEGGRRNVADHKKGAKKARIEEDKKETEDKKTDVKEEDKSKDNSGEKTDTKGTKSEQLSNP
HDAC4, sequence (P56524 whole entry): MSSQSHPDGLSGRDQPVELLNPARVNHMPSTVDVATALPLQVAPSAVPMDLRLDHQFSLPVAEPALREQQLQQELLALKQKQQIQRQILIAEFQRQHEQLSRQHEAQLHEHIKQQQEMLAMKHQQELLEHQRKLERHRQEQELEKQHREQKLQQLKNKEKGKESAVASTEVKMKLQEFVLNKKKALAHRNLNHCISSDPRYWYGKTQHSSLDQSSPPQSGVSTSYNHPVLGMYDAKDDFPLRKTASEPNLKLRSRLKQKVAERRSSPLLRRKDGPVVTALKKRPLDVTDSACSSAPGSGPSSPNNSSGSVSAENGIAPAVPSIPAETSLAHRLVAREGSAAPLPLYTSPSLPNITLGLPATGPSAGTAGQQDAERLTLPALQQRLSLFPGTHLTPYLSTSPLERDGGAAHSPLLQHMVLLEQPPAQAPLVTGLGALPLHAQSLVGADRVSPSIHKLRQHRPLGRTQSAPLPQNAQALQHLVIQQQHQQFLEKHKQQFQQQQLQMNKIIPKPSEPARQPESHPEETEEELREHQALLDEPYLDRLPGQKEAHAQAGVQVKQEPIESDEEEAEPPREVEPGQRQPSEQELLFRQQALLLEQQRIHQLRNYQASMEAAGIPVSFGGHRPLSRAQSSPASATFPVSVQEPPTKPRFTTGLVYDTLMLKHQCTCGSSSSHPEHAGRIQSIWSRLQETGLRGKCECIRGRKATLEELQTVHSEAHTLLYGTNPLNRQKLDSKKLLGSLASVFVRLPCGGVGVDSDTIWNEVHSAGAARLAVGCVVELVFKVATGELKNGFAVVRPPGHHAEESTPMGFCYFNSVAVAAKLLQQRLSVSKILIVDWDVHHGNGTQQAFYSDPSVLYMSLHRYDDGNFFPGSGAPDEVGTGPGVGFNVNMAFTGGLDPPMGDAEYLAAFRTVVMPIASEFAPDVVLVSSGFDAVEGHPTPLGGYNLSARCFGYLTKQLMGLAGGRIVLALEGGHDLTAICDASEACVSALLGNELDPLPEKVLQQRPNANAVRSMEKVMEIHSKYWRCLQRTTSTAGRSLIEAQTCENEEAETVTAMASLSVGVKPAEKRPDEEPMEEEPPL

| Structure (SMILES) | Hydrolysis in the absence of enzyme [1] | Slow-binding mechanism from kobs vs inhibitor concentration [2] | HDAC1 percent inhibition at 10 μM [3] | Dependence of HDAC6 inhibition on preincubation time [4] | HDAC4 percent inhibition at 10 μM [5] | HDAC2 percent inhibition at 10 μM [6] | HDAC6 percent inhibition at 10 μM [7] |
| --- | --- | --- | --- | --- | --- | --- | --- |
| FC(F)c1nnc(-c2cnc(NCc3ccccc3)nc2)o1 [Compound 6, N-Benzyl-5-[5-(difluoromethyl)-1,3,4-oxadiazol-2-yl]pyrimidin-2-amine] | does not undergo hydrolysis | mechanism II | no activity | highly dependent on the preincubation time | no activity | no activity |  |
| COc1ccc(CNc2ncc(-c3nnc(C(F)F)o3)cn2)cc1 [Compound 7, 5-[5-(Difluoromethyl)-1,3,4-oxadiazol-2-yl]-N-(4-methoxybenzyl)pyrimidin-2-amine] |  |  | no activity |  | no activity | no activity |  |
| O=C(NNC(=O)C(F)F)c1cnc(NCc2ccccc2)nc1 [Compound 13, 2-(Benzylamino)-N’-(2,2-difluoroacetyl)pyrimidine-5-carbohydrazide] |  |  |  |  |  |  | does not show any inhibitory activity |
| O=C(CCCCCCC(=O)Nc1ccccc1)NO [Vorinostat, reference compound] |  |  |  | did not depend on the preincubation time |  |  |  |
| CCCCN(Cc1ccc(-c2nnc(C(F)F)o2)cc1)C(=O)Nc1ccccc1 [Compound 9, 1-Butyl-1-{4-[5-(difluoromethyl)-1,3,4-oxadiazol-2-yl]benzyl}−3-phenylurea] |  |  | inactive |  | inactive | inactive | only moderate inhibitory activity |
| FC(F)(F)c1nnc(-c2cnc(NCc3ccccc3)nc2)o1 [Compound 17, N-Benzyl-5-[5-(trifluoromethyl)-1,3,4-oxadiazol-2-yl]pyrimidin-2-amine] |  | single-step slow-binding mechanism I | no inhibition | substantial decrease in the HDAC6 IC50 values upon preincubation | no inhibition | no inhibition |  |
| CCCCN(Cc1ccc(-c2nnc(C(F)F)o2)cc1)C(=O)c1ccccc1 [Compound 10, N-Butyl-N-{4-[5-(difluoromethyl)-1,3,4-oxadiazol-2-yl]benzyl}benzamide] |  |  | inactive |  | inactive | inactive | only moderate inhibitory activity |
| CN(C)c1ccc(C(=O)N(CC(=O)NCc2ccccc2)Cc2ccc(-c3nnc(C(F)F)o3)cc2)cc1 [Compound 12, N-[2-(Benzylamino)-2-oxoethyl]-N-{4-[5-(difluoromethyl)-1,3,4-oxadiazol-2-yl]benzyl}−4-(dimethylamino)benzamide] |  |  | inactive |  | inactive | inactive | only moderate inhibitory activity |
